Values joined by “and” are separate entries in the source; they are usually repeats but may differ in a detail not shown here. Equal entries are not always repeated. “Also recorded” adds a separate entry of the source. Where two headings read alike, the source gives them in different places.
What was measured:
[1] = system: Candidatus Liberibacter asiaticus; details: in vivo
[2] = system: reactive oxygen species (ROS) production in Arabidopsis leaf tissue; assay: ROS activity assay in Arabidopsis leaf tissue; assay type: cell-based, Arabidopsis thaliana; details: 100 nM each polypeptide, negative control (water) 82896
Experimental: Elf18 and Elf26 polypeptides derived from the consensus Bacillus cereus Elongation Factor-TU (EF-Tu) protein were tested for ability to produce a ROS response in corn (hybrid 5828 YX), soy (variety Morsoy), and Arabidopsis thaliana. Polypeptides were synthesized by Genscript USA (Piscataway, N.J.) using standard solid-phase synthesis methods and provided as a lyophilized powder with greater than or equal to 70% purity. Dry powder was re-suspended to a concentration of 10 mM in ultrapure water, and then serially diluted in ultrapure water to the concentrations tested in the ROS assay in Table 98.
For the ROS assay, Arabidopsis leaves were excised from 4-week-old plants, and using a cork borer 4 mm disks were removed from the leaves. Each disc was cut in half using the edge of a razor blade, and then each disc half was floated on 150 μL of water abaxial side touching the water in a 96-well plate to rest overnight. The next day, the water was removed from each well just prior to polypeptide treatment. RLU values and relative ROS activity was reported as the average of 4 measurements.

corn [3] = assay: Foliar application to corn in growth room, plant height (non-stress, heat and water deficit stress); details: for increase in plant height vs surfactant alone / Δ Height Normalized as a percentage of control height: 1 μM; for increase in plant height vs surfactant alone: V2-V3, heat and water deficit stress; for Δ Height (cm) / Δ Height Normalized as a percentage of control height: corn, heat and water deficit stress; for Δ Height (cm): 1 μM with 0.1% surfactant; for Δ Height Normalized as a percentage of control height: surfactant control = 100%; for plant height as % of control: foliar 1 μM
citrus trees = details: for Flush length (% of control) / Average Flush Length (inches): injected April 2017, measured May 2018; for more new branch growth than untreated control: orange
corn [4] = assay: Seed treatment of corn, field yield trials; assay type: in vivo; details: for yield increase vs non-treated seed: 2 hybrids; for Average Yield Bu/Ac / Average Change in Bu/Ac compared to Untreated Control: seed treatment on base ST, BECK's 5828YX; for Average Yield Bu/Ac: 1 location, four replicated trials; for Average Total Yield Bu/Ac Hybrid 1 / Average Total Yield Bu/Ac Hybrid 1 and 2 / Average Total Yield Bu/Ac Hybrid 2: seed treatment
[5] = system: reactive oxygen species (ROS) production in corn tissue; assay: ROS activity assay in corn tissue (luminol/horseradish peroxidase, RLU); details: for Change (X) in RLU of Flg22 Polypeptide Compared to Negative Control / Average RLU of Flg22 Polypeptide Treatment: corn petiole; for Average RLU of Flg22 Polypeptide Treatment: background subtracted; for Relative ROS activity normalized to Bt.4Q7Flg22: normalized to Bt.4Q7Flg22 at 100 nM
soybean = assay: Foliar application to soybean in growth room, plant height (non-stress, heat and water deficit stress); assay type: in vivo; details: 300 nM + 0.1% ALLIGARE SURFACE
Experimental: Ec.Flg22 (SEQ ID NO: 527) was applied to soybean (Beck's 297NR).
Plant height (cm) was measured just prior to the foliar application delivered at 3 weeks and then again 2 weeks later when the plants were 5-weeks-old. Two replicate trials were conducted using 18 plants per trial.
Soybean plants were grown as described in Example 6. The At.PSKα polypeptide (SEQ ID NO: 598) was applied as a foliar spray to the plants at the V1-V4 stage. Soybean plants treated with foliar applications of At.PSKα and control plants treated with water and surfactant alone were then grown in conditions described in Examples 7-9 that produced a non-stress and stress (heat and water deficit) environments. Table 37 describes the percentage change or increase in height reported for soybean plants treated with At.PSKα as a foliar spray at the V1-V4 growth stage.
RHPP bioactive priming polypeptide (SEQ ID NO: 600) was also applied as foliar treatment to R1 stage hybrid soybean (Beck's 297R4) with 0.1% (v/v) non-ionic surfactant ([…] SURFACE) using a spray bottle delivering approximately 1.2 ml/plant. This experiment was performed to look at the effects of RHPP on plant growth and was conducted using a total of 18 plants per treatment group. […] R1 stage soybean plants were treated with nothing (non-treated control), […] SURFACE surfactant applied at a concentration of 0.1% (v/v) or the RHPP polypeptide (300 nM) applied in combination with […] SURFACE surfactant (0.1% v/v). Height for each plant was recorded at the time of spray and again at 16 days post foliar application and average growth parameters were compared between foliar treatments (Table 39).

[6] = polypeptide 0.25 μM (cellobiose 1 mM where combined)
[7] = polypeptide 1.0 μM (cellobiose 1 mM where combined)
[8] = 0.25 μM in seed coating slurry (0.035 fl oz of 40 μM peptide solution/unit)
[9] = 1.0 μM in seed coating slurry (0.14 fl oz of 40 μM peptide solution/unit)

Substance: Bt.4Q7Flg22: Flg22 polypeptide (22 amino acids) from flagellin of Bacillus thuringiensis strain 4Q7 (DRLSSGKRINSASDDAAGLAIA; listed as Bacillus thuringiensis)
- Ct values vs control trees [1]: slightly higher Ct counts; also recorded: significantly higher Ct values
- Percentage Reduction in CLas titer Normalized to the Control, Trial 1 [1]: 37% and 33%
- reduction in CLas titer levels [1]: 37% and 43%
- Average RLU value [2]: 258073 RLU
- increase in plant height vs surfactant alone (corn [3]; Trial 1): ~13%
- increase in plant height vs surfactant alone (corn [3]; Trial 3): > 33%
- Δ Height (cm) (corn [3]; Trial 1): +11.68 cm
- Δ Height Normalized as a percentage of control height (corn [3]; Trial 1): 112.9%
- Δ Height (cm) (corn [3]; Trial 2): +9.28 cm
- Δ Height Normalized as a percentage of control height (corn [3]; Trial 2): 99.5%
- Δ Height (cm) (corn [3]; Trial 3): +11.03 cm
- Δ Height Normalized as a percentage of control height (corn [3]; Trial 3): 133.2%
- plant height as % of control (corn [3]; heat/water stressed conditions): ~108%
- plant height as % of control (corn [3]; non-stressed conditions): 108% and 102%
- phytotoxicity after trunk injection (citrus trees; 1× or 10× rate): no phytotoxicity occurred
- average new shoot length (citrus trees; Hamlin and Vernia orange, trunk injection, two months after treatment): 3.84 inches
- shoot length vs untreated control (printed as % longer) (citrus trees; Hamlin and Vernia orange, two months after trunk injection or foliar spray): 25%
- Flush length (% of control) (citrus trees; Red Grapefruit, 1X, 0.138 μM): 135%
- Average Flush Length (inches) (citrus trees; Red Grapefruit, 1X, 0.138 μM, control 8.05): 10.83 inches
- Flush length (% of control) (citrus trees; Red Grapefruit, 10X, 1.38 μM): 113%
- Average Flush Length (inches) (citrus trees; Red Grapefruit, 10X, 1.38 μM, control 8.05): 9.13 inches
- Flush length (% of control) (citrus trees; Valencia Orange, 1X, 0.138 μM): 184%
- Average Flush Length (inches) (citrus trees; Valencia Orange, 1X, 0.138 μM, control 7.23): 13.33 inches
- Flush length (% of control) (citrus trees; Valencia Orange, 10X, 1.38 μM): 170%
- Average Flush Length (inches) (citrus trees; Valencia Orange, 10X, 1.38 μM, control 7.23): 12.29 inches
- more new branch growth than untreated control (citrus trees; 1× injection): 85%
- more new branch growth than untreated control (citrus trees; 1× injection April 2017, measured May 2018): 6.1 inches
- yield gain vs base seed treatment only (corn [4]; 1 uM in slurry, 3 hybrids, 8 locations): 4.73 Bu/Ac
- yield increase vs non-treated seed (corn [4]; high rate, 1.0 μM slurry (0.14 Fl. oz per unit), 12 locations): 5.3 Bu/Ac
- yield increase vs non-treated seed (corn [4]; low rate, 0.25 μM slurry (0.035 Fl. oz per unit), 12 locations): 2.1 Bu/Ac
- win rate (corn [4]; second study, 12 locations): 50%
- yield advantage (corn [4]; second study, 12 locations): 2.8 Bu/Ac
- Average Yield Bu/Ac (corn [4]; [6]): 47.06 Bu/Ac
- Average Yield Bu/Ac (corn [4]; [7]): 29.60 Bu/Ac
- Average Change in Bu/Ac compared to Untreated Control (corn [4]; [6]): +19.07 Bu/Ac
- Average Change in Bu/Ac compared to Untreated Control (corn [4]; [7]): +1.60 Bu/Ac
- Average Total Yield Bu/Ac Hybrid 1 (corn [4]; [8]): 218.36 Bu/Ac
- Average Total Yield Bu/Ac Hybrid 1 and 2 (corn [4]; [8]): 200.62 Bu/Ac
- Average Total Yield Bu/Ac Hybrid 2 (corn [4]; [8]): 182.88 Bu/Ac
- Average Total Yield Bu/Ac Hybrid 1 (corn [4]; [9]): 213.44 Bu/Ac
- Average Total Yield Bu/Ac Hybrid 1 and 2 (corn [4]; [9]): 202.62 Bu/Ac
- Average Total Yield Bu/Ac Hybrid 2 (corn [4]; [9]): 187.48 Bu/Ac
- Avg. Activity (%) Corn (5828 YX) 5 nM polypeptide ([5]; Table 33, RLU relative to native Bt.4Q7Flg22 = 100): 100%
- Avg. Activity (%) Corn (5828 YX) 5 nM polypeptide ([5]; Table 35, single polypeptides and combinations, Bt.4Q7Flg22 = 100): 100%
- Change (X) in RLU of Flg22 Polypeptide Compared to Negative Control ([5]; 1.0 nM): 0.8X
- Average RLU of Flg22 Polypeptide Treatment ([5]; 1.0 nM): 6851 RLU
- Change (X) in RLU of Flg22 Polypeptide Compared to Negative Control ([5]; 5 nM): 1.1X
- Average RLU of Flg22 Polypeptide Treatment ([5]; 5 nM): 9389 RLU
- Change (X) in RLU of Flg22 Polypeptide Compared to Negative Control ([5]; 25 nM): 1.4X
- Average RLU of Flg22 Polypeptide Treatment ([5]; 25 nM): 12157 RLU
- Average RLU ([5]; corn stalk tissue, 10 nM): 6032 RLU
- relative ROS activity ([5]; corn stalk tissue, 10 nM): 0.2 ×
- Relative ROS activity normalized to Bt.4Q7Flg22 ([5]; corn stalk tissue, 10 nM): (0.2X)
- Average RLU ([5]; corn stalk tissue, 100 nM): 33037 RLU
- Relative ROS activity normalized to Bt.4Q7Flg22 ([5]; corn stalk tissue, 100 nM): (1X*)

Substance: GGIRAAPTGNER (Glycine max) [RHPP, Root Hair Promoting Peptide from Glycine max]
- plant height and change in plant height vs surfactant alone and non-treated (soybean; R1, 16 days post application): increased plant growth (plant height)
- Height (cm) (soybean; soybean Beck's 297R4, R1 stage, 16 days post foliar application, n = 18): 19.9 cm
- Change in height (cm) (soybean; soybean Beck's 297R4, R1 stage, spray to 16 days post application, n = 18): 4.6 cm

Source: US12268727B2, “Bioactive polypeptides for improvements in plant protection, growth and productivity” (priority 2017, dated 2025)
